Experimental data taken from patent US8846981B2, “1,1-di[(alkylphenoxy)ethoxy]cyclohexanes” (Southern Lithoplate, Inc., priority 2012, dated 2014).

How the values were obtained:
[1] = Solubility of the ketals in water / deionized water; assay type: physicochemical; conditions: for Solubility in water: product or starting alcohol as described in the example
Excerpt: A typical aqueous alkaline developer for a positive-working, lithographic printing plate contains roughly 5% by weight of NaOH or KOH. A 1.0 M NaOH solution is equivalent to 4% by weight of NaOH.

[2] = Solubility in a 1.0 M NaOH water solution; assay type: physicochemical; conditions: 1.0 M NaOH water solution (equivalent to 4% by weight NaOH)
Excerpt: The physical appearance of the ketals from Examples 1-4 and from Comparative Examples A-B are given in the following table, along with their solubility in deionized water and in a 1.0 M NaOH water solution. A typical aqueous alkaline developer for a positive-working, lithographic printing plate contains roughly 5% by weight of NaOH or KOH. A 1.0 M NaOH solution is equivalent to 4% by weight of NaOH.

[3] = Acid decomposition of the ketal back to starting alcohol and cyclohexanone; assay type: physicochemical; conditions: addition of an acid, such as p-toluenesulfonic acid
Method: A stirred mixture of 72 g (0.5 mol) of 1,1-dimethoxycyclohexane, 250 g (1.0 mol) of 2-[4-(1,1,3,3-tetramethylbutyl)phenoxy]ethanol, 0.080 g of p-toluenesulfonic acid, and 300 ml of toluene was reacted in a flask with a thermometer and fractional distillation column at 120° C. for 8 hours with continuous stirring. The low boiling methanol that was produced during the reaction was removed. The reaction mixture was cooled to room temperature and washed with a small amount of an aqueous 1.0 M sodium hydroxide solution until the mixture was neutralized. The reaction mixture was then washed with a saturated sodium chloride solution to remove any remaining water in the toluene. Next the reaction mixture was dried over anhydrous potassium carbonate to remove any minor amounts of water and to make sure all of the p-toluenesulfonic acid was removed. The resulting mixture was filtered. The filtrate was evaporated under reduced pressure at 60° C. until all of the toluene was removed. […] The starting surfactant is water-insoluble. This ketal with a theoretical molecular weight of 580 has the structural formula shown below.

[4] = related art; cited from earlier work
[5] = related art; cited from earlier work; remark: listed apart in the source

Solubility in water [1]	Solubility in 1.0M NaOH [2]	Solubility in DI Water ([1]; deionized water)	SMILES	Decomposition by acid [3]	Solubility in water (background statement, words) [4]	Decomposition by strong acids (background statement) [5]
water-insoluble			CC(C)(C)c1ccc(OCCO)cc1 [2-[4-(1,1-dimethylethyl)phenoxy]ethanol]			
low water solubility			OCCOc1ccccc1 [2-phenoxyethanol]			
water-insoluble	insoluble	insoluble	c1ccc(OCCOC2(OCCOc3ccccc3)CCCCC2)cc1 [A, 1,1-di(2-phenoxyethoxy)cyclohexane]	can be converted back to the starting alcohol and cyclohexanone	water insoluble	decompose this ketal into cyclohexanone and 2-phenoxyethanol

SMILES	Solubility in water [1]	Solubility in 1.0M NaOH [2]	Solubility in DI Water ([1]; deionized water)	Decomposition by acid [3]	Solubility in water (background statement, words) [4]	Decomposition by strong acids (background statement) [5]
CC(C)(C)CC(C)(C)c1ccc(OCCO)cc1 [2-[4-(1,1,3,3-tetramethylbutyl)phenoxy]ethanol]	water-insoluble					
